Reference: patent publication US7229999B2, “Pyridine-3-carboxamide derivatives as CB1 inverse agonists” (Hoffmann-La Roche Inc., priority 2005, dated 2007)
Where two headings read alike, the source gives them in different places.

Assays:
[1] = target: T1, human cannabis CB1 receptor (Homo sapiens, UniProt P21554); experiment: Affinity for cannabinoid CB1 receptors, [3H]-CP-55,940 radioligand binding on HEK cell membranes
T1 construct: expressed in transfected cells; host or cells: human embryonic kidney (HEK) cells, transient, Semliki Forest Virus system
T1 sequence (P21554 whole entry): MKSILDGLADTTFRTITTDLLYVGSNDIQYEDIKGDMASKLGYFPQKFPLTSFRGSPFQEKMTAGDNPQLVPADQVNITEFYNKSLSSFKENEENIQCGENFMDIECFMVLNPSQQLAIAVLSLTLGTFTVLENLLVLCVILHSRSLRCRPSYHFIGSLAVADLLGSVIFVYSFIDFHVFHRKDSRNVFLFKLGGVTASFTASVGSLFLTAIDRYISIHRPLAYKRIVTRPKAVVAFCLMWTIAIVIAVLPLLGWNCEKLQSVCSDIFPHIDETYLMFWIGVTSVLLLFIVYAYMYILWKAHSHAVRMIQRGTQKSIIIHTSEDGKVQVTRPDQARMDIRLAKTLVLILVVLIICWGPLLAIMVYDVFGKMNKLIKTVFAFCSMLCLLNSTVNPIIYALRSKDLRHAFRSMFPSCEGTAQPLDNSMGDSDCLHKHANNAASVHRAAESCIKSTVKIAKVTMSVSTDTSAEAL
Experimental: The affinity of the compounds of the invention for cannabinoid CB1 receptors was determined using membrane preparations of human embryonic kidney (HEK) cells in which the human cannabis CB1 receptor is transiently transfected using the Semliki Forest Virus system in conjunction with [3H]-CP-55,940 as radioligand. After incubation of a freshly prepared cell membrane preparation with the [3H]-ligand, with or without addition of compounds of the invention, separation of bound and free ligand was performed by filtration over glassfiber filters. Radioactivity on the filter was measured by liquid scintillation counting.

[2] = doses of 10 and 20 mg daily; cited from earlier work

CCCCOc1ncc(C(=O)N[C@@H]2CCCC[C@H]2O)cc1-c1cc(C(F)(F)F)ccc1F [Example 2, 6-Butoxy-5-(2-fluoro-5-trifluoromethyl-phenyl)-N-((1R,2R)-2-hydroxy-cyclohexyl)-nicotinamide]
melting point: 172 to 178 °C | IC50 ([1]; affinity for the CB1 receptor, read-out: IC50): 186 nM

CCCCOc1ncc(C(=O)N[C@@H]2CCCC[C@H]2O)cc1-c1ccc(Cl)cc1 [Example 3, 6-Butoxy-5-(4-chloro-phenyl)-N-((1R,2R)-2-hydroxy-cyclohexyl)-nicotinamide]
IC50 [1]: 39 nM

O=C(N[C@@H]1CCCC[C@H]1O)c1cnc(OCC2CC2)c(-c2cc(C(F)(F)F)ccc2F)c1 [Example 7, 6-Cyclopropylmethoxy-5-(2-fluoro-5-trifluoromethyl-phenyl)-N-((1R,2R)-2-hydroxy-cyclohexyl)-nicotinamide]
IC50 [1]: 102 nM

Cc1c(C(=O)NN2CCCCC2)nn(-c2ccc(Cl)cc2Cl)c1-c1ccc(Cl)cc1 [SR 141716]
body weight compared to placebo [2]: significantly reduced body weight
